Measurements as given in US8946237B2, “Pyrazolo[1,5-A]pyrimidines as mark inhibitors” (Merck Sharp & Dohme Corp., priority 2010, dated 2015).

Experiments:
[1] = target: T1, MARK3 (Homo sapiens, UniProt P27448); experiment: MARK 3 Assay (HTRF, Cdc25C biotinylated peptide substrate); type: biochemical; conditions: 10 μM ATP, 10 nM recombinant MARK3 enzyme
T1 construct: purchased University of Dundee
Protocol: MARK3 activity was assayed in vitro using a Cdc25C biotinylated peptide substrate (Cell Signalling Technologies). The phosphopeptide product was quantitated using a Homogenous Time-Resolved Fluorescence (HTRF) assay system (Park et al., 1999, Anal. Biochem. 269:94-104). The reaction mixture contained 50 mM HEPES/Tris-HCl, pH 7.4; 10 mM NaCl, 5 mM MgCl2, 0.2 mM NaVO4, 5 mM β-glycerol phosphate, 0.1% Tween-20, 2 mM dithiothreitol, 0.1% BSA, 10 μM ATP, 1 μM peptide substrate, and 10 nM recombinant MARK3 enzyme (University of Dundee) in a final volume of 12 μL. The buffer additionally contained protease inhibitor cocktail (Roche EDTA-free, 1 tab per 50 ml). The kinase reaction was incubated for 2 hours at 25° C., and then terminated with 3 μl Stop/Detection Buffer (50 mM HEPES, pH 7.0, 16.6 mM EDTA, 0.5M KF, 0.1% Tween-20, 0.1% BSA, 2 μg/ml SLX^ent 665 (CISBIO), and 2 μg/mL Eu^3+ cryptate label antibody (CISBIO)). The reaction was allowed to equilibrate overnight at 0° C., and relative fluorescent units were read on an HTRF enabled plate reader (e.g. TECAN GENios Pro).
Inhibitor compounds were assayed in the reaction described above to determine compound IC50s. Aliquots of compound dissolved in DMSO were added to the reaction wells in a third-log dilution series covering a range of 1 nM to 10 μM. Relative phospho substrate formation, read as HTRF fluorescence units, was measured over the range of compound concentrations and a titration curve generated.

[2] = Mean Arterial Pressure in anesthetized dogs; type: in vivo
Excerpt: The compounds of Formula I disclosed herein are also useful as blood pressure lowering agents and thus useful for the treating hypertension. Arterial hypertension has been identified as a strong causal factor in cardiovascular disease. An embodiment of the invention encompasses a method for treating or preventing cardiovascular disease comprising administering to a patient in need thereof a compound of Formula I, either as a single agent or in combination with other standard of care agents. It is postulated that compounds of the invention lower blood pressure by interfering with binding of tau and other microtubule associated proteins (MAP) to microtubules. Inhibiting the depolymerization of tubulin is the proposed cause of vasorelaxation leading to blood pressure lowering. […] Example 4 disclosed herein lowered Mean Arterial Pressure by 25% when it was dosed at 5 mg/kg cumulatively over the course of 90 minutes in anesthetized dogs. Example 9 disclosed herein lowered Mean Arterial Pressure by 89% when it was dosed at 10 mg/kg cumulatively over the course of 90 minutes in anesthetized dogs.

T1 sequence (P27448 whole entry, species assumed): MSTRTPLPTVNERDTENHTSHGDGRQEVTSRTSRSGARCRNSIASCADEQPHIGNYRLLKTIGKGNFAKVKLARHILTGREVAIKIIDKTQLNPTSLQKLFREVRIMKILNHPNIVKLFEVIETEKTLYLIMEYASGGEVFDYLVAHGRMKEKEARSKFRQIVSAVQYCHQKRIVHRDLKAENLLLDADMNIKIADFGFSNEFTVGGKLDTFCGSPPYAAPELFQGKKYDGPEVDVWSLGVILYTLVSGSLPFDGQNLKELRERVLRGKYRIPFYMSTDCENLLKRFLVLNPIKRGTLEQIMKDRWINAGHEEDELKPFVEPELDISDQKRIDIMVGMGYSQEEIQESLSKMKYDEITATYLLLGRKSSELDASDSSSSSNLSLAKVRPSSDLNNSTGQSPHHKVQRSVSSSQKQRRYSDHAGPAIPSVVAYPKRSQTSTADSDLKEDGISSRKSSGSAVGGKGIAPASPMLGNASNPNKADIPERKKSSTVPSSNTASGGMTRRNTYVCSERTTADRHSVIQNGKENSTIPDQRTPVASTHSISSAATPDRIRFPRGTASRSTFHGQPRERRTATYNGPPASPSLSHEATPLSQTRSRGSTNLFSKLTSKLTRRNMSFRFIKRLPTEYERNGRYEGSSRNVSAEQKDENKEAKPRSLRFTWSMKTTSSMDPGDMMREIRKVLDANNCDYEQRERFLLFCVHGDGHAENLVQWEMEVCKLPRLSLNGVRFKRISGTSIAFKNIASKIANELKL

| IC50 [1] [nM] | SMILES | lowered Mean Arterial Pressure ([2]; 5 mg/kg cumulatively over the course of 90 minutes) [%] | lowered Mean Arterial Pressure ([2]; 10 mg/kg cumulatively over the course of 90 minutes) [%] |
| --- | --- | --- | --- |
| 27 | CCc1sc(C(=O)N[C@@H]2[C@@H](N)CCCC2(F)F)cc1-c1cnn2cc(Cl)cnc12 [Example 4, N-[(1R,6S)-6-Amino-2,2-difluorocyclohexyl]-4-(6-chloropyrazolo[1,5-a]pyrimidin-3-yl)-5-ethylthiophene-2-carboxamide] | 25 |  |
| 73 | CCc1sc(C(=O)N[C@@H]2[C@@H](N)CCCC2(F)F)cc1-c1cnn2cc(C(F)(F)F)cnc12 [Example 6, N-[(1R,6S)-6-Amino-2,2-difluorocyclohexyl]-5-ethyl-4-[6-(trifluoromethyl)pyrazolo[1,5-a]pyrimindin-3-yl]thiophene-2-carboxamide] |  |  |
| 3 | Cc1sc(C(=O)N[C@@H]2[C@H](N)CCCC2(F)F)cc1-c1cnn2cc(OC(F)F)cnc12 [Example 9, N-[(1R,6R)-6-Amino-2,2-difluorocyclohexyl]-4-[6-(difluoromethoxy)pyrazolo[1,5-a]pyrimidin-3-yl]-5-methylthiophene-2-carboxamide] |  | 89 |
| 5 | Cc1sc(C(=O)N[C@@H]2[C@@H](N)CCCC2(F)F)cc1-c1cnn2cc(OC(F)F)cnc12 [Example 10, N-[(1R,6S)-6-amino-2,2-difluorocyclohexyl]-4-[6-(difluoromethoxy)pyrazolo[1,5-a]pyrimidin-3-yl]-5-methylthiophene-2-carboxamide] |  |  |
| 2 | CCOc1cnc2c(-c3cc(C(=O)N[C@@H]4[C@H](N)CCCC4(F)F)sc3CC)cnn2c1 [Example 15, N-[(1R,6R)-6-amino-2,2-difluorocyclohexyl]-4-(6-ethoxypyrazolo[1,5-a]pyrimidin-3-yl)-5-ethylthiophene-2-carboxamide] |  |  |
| 1 | Cc1sc(C(=O)N[C@@H]2CCCC[C@@H]2N)cc1-c1cnn2cc(-c3cnn(C)c3)cnc12 [reference compound] |  |  |
